The subject of experiment [1] is Retinal Ganglion Cells (RGC). The experiment can be described thus: Retinal ganglion cell (RGC) survival by BRN3A staining of flat-mounted retinae after optic nerve ligation/reperfusion. In kind it is in vivo, Male Long-Evans rats. To be noted: 8 days after injury. The procedure: Ischemia was maintained for 45 minutes.
At the end of the study, the animals were euthanized by intraperitoneal injection of overdosed pentobarbital. After euthanasia at day 8 after optic nerve ligation injury, the retinae of both eyes of N=6 animals per cohort were fixed in formalin 4% (1 h at room temperature), dissected and flat-mounted. The flat-mounted preparation was incubated with an Alexa 594 conjugated anti-BRN3A (Brain-specific homeobox/POU domain protein 3A, Chemicon, cat #mAb1585) to visualize the Retinal Ganglion Cells (RGC). Fluorescence was assessed by an Apotome microscope at magnification×20 (Zeiss) within twelve randomly selected respective microscopic fields per subject. The number of surviving RGC was determined with Axio Vision 4.2 software in the respective retinae areas.
Animals were sacrificed at day 8 and retinae were analysed for BrN3A (Brain-specific homeobox/POU domain protein 3A) protein expression patterns that are specific for retinal ganglion cells (RGCs). 12 fields per retina were evaluated.

The subject of experiment [2] is ischemia-related optic nerve injury. As to conditions: topically or intraperitoneal (IP) applied formulations; cited from earlier work.

Results on one molecule are retold here after US20160015771A1, “METHOD OF TREATING OPTIC NERVE DAMAGE, OPHTHALMIC ISCHEMIA OR OPHTHALMIC REPERFUSION INJURY” (Curonz Holdings Company Limited, priority 2012, published 2016).

On to `Brc1c(NC2=NCCN2)ccc2nccnc12` [Brimonidine], for which, in experiment [1] (relative to non-ischemic eyes, saline group 19.6%), the “total RGCs rescued” value amounted to 39.6%. Further, the RGC density in experiment [1] (Brimonidine prophylactically applied, 1 mg/kg IP 1 h before ischemia, n=5, non-ischemic eyes 2158 RGCs/mm2) was 855.5±30.7 RGCs/mm2. In addition, the neuroprotective activity entry in experiment [2] is “neuroprotective”.
